Assay results as given in patent US20260015339A1, “CALIX[4]ARENES WITH HIGH ANTICANCER ACTIVITY” (UNIVERSITE GRENOBLE ALPES, priority 2023, published 2026).

Key:
[1] = system: Non-malignant MSC cells; experiment: MTS cytotoxicity assay on MSC; type: cell-based; settings: 72 hours of treatment
Method: After 72 hours of treatment, the cytotoxicity was measured by means of the IC50 value, using the kit “CellTiter 96R AQuous One Solution Cell Proliferation Assay (MTS)” from Promega™. Following 30 minutes of incubation with the MTS reagent, the endpoint measurements were done in triplicate at 485 nm, using a fluorescence plate reader.

[2] = system: A549; experiment: PROLiFiler-Cell Panel Screening (CellTiterGlo); type: cell-based; settings: Homo sapiens; Lung, A549, 72 hours
Method: (§1) For the assays, cells were seeded in white cell culture-treated flat and clear bottom 384-well multiwall plates and incubated at 37° C. overnight before the calix[4]arene of the formula (2) or the reference compound were added. After incubation for 72 hours at 37° C. at 5% or 10% CO2 depending on the medium, cell plates were equilibrated to room temperature (i.e. 20° C.) for one hour, CellTiterGlo® reagent from the firm Promega was added and luminescence was measured approximately an hour later using a luminometer.
(§2) Raw data were converted into percent cell viability relative to the high and low control, which were set to 100% and 0%, respectively.

[3] = system: COV434; experiment: PROLiFiler-Cell Panel Screening (CellTiterGlo); type: cell-based; settings: Ovary, COV434, 72 hours
Method: as §1, §2

[4] = system: Caki-1; experiment: PROLiFiler-Cell Panel Screening (CellTiterGlo); type: cell-based; settings: Homo sapiens; Kidney, Caki-1, 72 hours
Method: as §1, §2

[5] = system: Caki-2; experiment: PROLiFiler-Cell Panel Screening (CellTiterGlo); type: cell-based; settings: Homo sapiens; Kidney, Caki-2, 72 hours
Method: as §1, §2

[6] = system: Colo 205; experiment: PROLiFiler-Cell Panel Screening (CellTiterGlo); type: cell-based; settings: Homo sapiens; Colon, Colo 205, 72 hours
Method: as §1, §2

[7] = system: DU-145; experiment: PROLiFiler-Cell Panel Screening (CellTiterGlo); type: cell-based; settings: Homo sapiens; Prostate, DU-145, 72 hours
Method: as §1, §2

[8] = system: DV90; experiment: PROLiFiler-Cell Panel Screening (CellTiterGlo); type: cell-based; settings: Homo sapiens, DV-90; Lung, DV90, 72 hours
Method: as §1, §2

[9] = system: EFM-192A; experiment: PROLiFiler-Cell Panel Screening (CellTiterGlo); type: cell-based; settings: Breast, 72 hours
Method: as §1, §2

[10] = system: H1299; experiment: PROLiFiler-Cell Panel Screening (CellTiterGlo); type: cell-based; settings: Homo sapiens, NCI-H1299; Lung, H1299, 72 hours
Method: as §1, §2

[11] = system: H460; experiment: PROLiFiler-Cell Panel Screening (CellTiterGlo); type: cell-based; settings: Homo sapiens, NCI-H460; Lung, H460, 72 hours
Method: as §1, §2

[12] = system: H4; experiment: PROLiFiler-Cell Panel Screening (CellTiterGlo); type: cell-based; settings: Brain, H4, 72 hours
Method: as §1, §2

[13] = system: HCC 1569; experiment: PROLiFiler-Cell Panel Screening (CellTiterGlo); type: cell-based; settings: Homo sapiens, HCC1569; Breast, HCC 1569, 72 hours
Method: as §1, §2

[14] = system: HCT-15; experiment: PROLiFiler-Cell Panel Screening (CellTiterGlo); type: cell-based; settings: Homo sapiens; Colon, HCT-15, 72 hours
Method: as §1, §2

[15] = system: HCT116; experiment: PROLiFiler-Cell Panel Screening (CellTiterGlo); type: cell-based; settings: Homo sapiens, HCT-116; Colon, HCT116, 72 hours
Method: as §1, §2

[16] = system: HuH7; experiment: PROLiFiler-Cell Panel Screening (CellTiterGlo); type: cell-based; settings: Homo sapiens, Huh-7; Liver, HuH7, 72 hours
Method: as §1, §2

[17] = system: K562; experiment: PROLiFiler-Cell Panel Screening (CellTiterGlo); type: cell-based; settings: Homo sapiens; Blood, K562, 72 hours
Method: as §1, §2

[18] = system: LOU-NH91; experiment: PROLiFiler-Cell Panel Screening (CellTiterGlo); type: cell-based; settings: Lung, LOU-NH91, 72 hours
Method: as §1, §2

[19] = system: LnCap; experiment: PROLiFiler-Cell Panel Screening (CellTiterGlo); type: cell-based; settings: Homo sapiens, Prostate, 72 hours
Method: as §1, §2

[20] = system: MOLM-13; experiment: PROLiFiler-Cell Panel Screening (CellTiterGlo); type: cell-based; settings: Homo sapiens; Blood, MOLM-13, 72 hours
Method: as §1, §2

[21] = system: NCI-H1573; experiment: PROLiFiler-Cell Panel Screening (CellTiterGlo); type: cell-based; settings: Homo sapiens; Lung, NCI-H1573, 72 hours
Method: as §1, §2

[22] = system: SW480; experiment: PROLiFiler-Cell Panel Screening (CellTiterGlo); type: cell-based; settings: Homo sapiens; Colon, SW480, 72 hours
Method: as §1, §2

[23] = system: SW620; experiment: PROLiFiler-Cell Panel Screening (CellTiterGlo); type: cell-based; settings: Homo sapiens, SW-620; Colon, SW620, 72 hours
Method: as §1, §2

[24] = system: U87MG; experiment: PROLiFiler-Cell Panel Screening (CellTiterGlo); type: cell-based; settings: Homo sapiens, U-87 MG, Brain, 72 hours
Method: as §1, §2

[25] = system: Candida albicans yeast cells; experiment: Minimal inhibitory concentration, yeast growth in 96 well plate; type: cell-based; settings: in presence of 100 μM CuSO4, read-out: minimal inhibitory concentrations values
Method: The efficiency of a compound of interest on a bacterial strain is evaluated by measuring its minimal inhibitory concentration (hereafter abbreviated “MIC”). MICs are measured by following the bacterial growth in a 96 wells plate exposed to a range of concentrations of the compound of interest.
96 Well plates were filled with 20 μL of 1 mM CuSO4 solution, then 160 μL of growth media was added. Finally, 20 μL of DMSO solutions containing a range of concentrations of the tested calix[4]arene of the formula (2) was added. […] For each condition three wells were used. The top and bottom rows were used as control, the top row only contained Lysogeny broth and the bottom one contained the growth media, DMSO and CuSO4. The plates were placed in the incubator for 16 to 24 hours. The absorbance of each well was measured at 600 nm with a multiplate reader (Fluostar from Optima).
Additionally, the same protocol was repeated with Candida albican yeast cells. Instead of Lysogeny broth, Yeast Extract-Peptone-Dextrose (Bacteriological peptone, 20 g/L; Glucose, 20 g/L; Yeast extract, 10 g/L) was used as growing medium. […]

[26] = system: H322 lung carcinoma cells; experiment: MTS cytotoxicity assay, combination with CuCl2, H322; settings: NCI-H322, 72 h, read-out: percentage of cell viability
Method: H322 lung carcinoma cells were seeded in 96-well plates together with the calix[4]arene of the formula (2) and CuCl2. Cells were grown in RPMI-1640 supplemented with GlutaMAX™ (Gibco™) and fetal calf serum (FCS, 10%) treated with a broad range of concentrations of the calix[4]arene of the formula (2) or/and CuCl2 from Merck. After 72 hours of treatment, the cytotoxicity was measured by means of the IC50 value, using the kit “CellTiter 96R AQuous One Solution Cell Proliferation Assay (MTS)” from Promega™ Following 30 minutes of incubation with the MTS reagent, the endpoint measurements were done in triplicate at 485 nm, using a fluorescence plate reader.

SMILES	IC50 [2] [nM]	IC50 [3] [nM]	IC50 [4] [nM]	IC50 [5] [nM]	IC50 [6] [nM]	IC50 [7] [nM]	IC50 [8] [nM]	IC50 [9] [nM]	IC50 [10] [nM]	IC50 [11] [nM]	IC50 [12] [nM]	IC50 [13] [nM]	IC50 [14] [nM]	IC50 [15] [nM]	IC50 [16] [nM]	IC50 [17] [nM]	IC50 [18] [nM]	IC50 [19] [nM]	IC50 [20] [nM]	IC50 [21] [nM]	also measured
CCCOc1c2cccc1Cc1cccc(c1OCc1nccn1C)Cc1cccc(c1OCCC)Cc1cccc(c1OCc1nccn1C)C2 [(2)]	1040	732	3240	2610	1810	1930	2160	5450	1300	727	2900	2960	2020	950	543	1890	652	1190	1710	2210	IC50 [1]: 1010 nM; IC50 [22]: 1520 nM; IC50 [23]: 1760 nM; IC50 [24]: 2460 nM; MIC [25]: 0.8 µM; viability at 0.1 µM [26]: 96.5%; viability at 0.5 µM [26]: 94.1%; viability at 1 µM [26]: 87%; viability at 1.5 µM [26]: 62.6%
CC(C)C[C@H](NC(=O)[C@H](Cc1ccccc1)NC(=O)c1cnccn1)B(O)O [bortezomib, reference compound]	13.7	9.24	5.37	12.8	6.79	6.8	7.37	4.75	8.42	28.8	8.36	5.15	9.25	6.78	4.3	14.6	7.04	14.1	3.91	16.7	IC50 [22]: 5.29 nM; IC50 [23]: 4.74 nM; IC50 [24]: 8.02 nM
